According to patent US8889668B2, “Oxadiazole diaryl compounds” (Merck Serono SA, priority 2007, dated 2014):

Biological target: S1P1 (Homo sapiens (Human), UniProt P21453)
Assay: 35S-GTPγS binding, membranes from CHO cells expressing S1P1
Assay type: biochemical
Conditions: 60 min 30° C., read-out: S1P1 GTPgS EC50

S1P1, sequence (P21453 whole entry, species assumed): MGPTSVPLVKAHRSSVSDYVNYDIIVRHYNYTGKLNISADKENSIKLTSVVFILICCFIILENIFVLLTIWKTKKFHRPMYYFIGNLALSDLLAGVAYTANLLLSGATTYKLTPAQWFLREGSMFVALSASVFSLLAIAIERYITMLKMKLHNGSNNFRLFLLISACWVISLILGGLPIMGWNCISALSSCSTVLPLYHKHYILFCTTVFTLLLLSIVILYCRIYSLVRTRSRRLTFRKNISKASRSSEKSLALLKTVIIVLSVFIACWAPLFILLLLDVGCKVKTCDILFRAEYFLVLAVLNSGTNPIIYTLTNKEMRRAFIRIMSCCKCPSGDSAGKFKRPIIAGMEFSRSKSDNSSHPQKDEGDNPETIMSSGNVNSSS

| SMILES | EC50 [nM] |
| --- | --- |
| COc1ccc(-c2ccc(-c3nc(-c4ccccc4OC(F)(F)F)no3)cc2C)c(OC)c1 [Compound I56, 5-(2′,4′-dimethoxy-2-methylbiphenyl-4-yl)-3-[2-(trifluoromethoxy)phenyl]-1,2,4-oxadiazole] | 302 |
| Cc1cc(-c2nc(-c3ccccc3OC(F)(F)F)no2)ccc1-c1c(C)noc1C [Compound I49, 5-[4-(3,5-dimethylisoxazol-4-yl)-3-methylphenyl]-3-[2-(trifluoromethoxy)phenyl]-1,2,4-oxadiazole] | 191 |
| COc1ccc(F)cc1-c1noc(-c2ccc(N3C(C)CCC3C)c([N+](=O)[O-])c2)n1 (stereo not shown) [Compound I39, 5-[4-(2,5-dimethylpyrrolidin-1-yl)-3-nitrophenyl]-3-(5-fluoro-2-methoxyphenyl)-1,2,4-oxadiazole] | 267 |
| COCCN(CCOC)c1ccc(-c2nc(-c3cc(F)ccc3OC)no2)cc1[N+](=O)[O-] [Compound I51, 4-[3-(5-fluoro-2-methoxyphenyl)-1,2,4-oxadiazol-5-yl]-N,N-bis(2-methoxyethyl)-2-nitroaniline] | 85 |
| COc1ccc(F)cc1-c1noc(-c2ccc(-c3cccnc3C)c(C)c2)n1 [Compound I73, 3-{4-[3-(5-fluoro-2-methoxyphenyl)-1,2,4-oxadiazol-5-yl]-2-methylphenyl}-2-methylpyridine] | 341 |
| COc1ccccc1-c1noc(-c2ccc(-c3ccccc3C(F)(F)F)c(C)c2)n1 [Compound I24, 3-(2-methoxyphenyl)-5-[2-methyl-2′-(trifluoromethyl)biphenyl-4-yl]-1,2,4-oxadiazole] | 57 |
| CC(C)Cc1ccc(-c2nc(-c3ccccc3OC(F)(F)F)no2)cc1 [Compound I30, 5-(4-isobutylphenyl)-3-[2-(trifluoromethoxy)phenyl]-1,2,4-oxadiazole] | 64 |
| CS(=O)(=O)Nc1cc(-c2nc(-c3ccccc3OC(F)(F)F)no2)ccc1N1CCCC(F)(F)C1 [Compound I43, N-(2-(3,3-difluoropiperidin-1-yl)-5-{3-[2-(trifluoromethoxy)phenyl]-1,2,4-oxadiazol-5-yl}phenyl)methanesulfonamide] | 39 |
| COCCN(CCOC)c1ccc(-c2nc(-c3ccccc3OC)no2)cc1[N+](=O)[O-] [Compound I52, N,N-bis(2-methoxyethyl)-4-[3-(2-methoxyphenyl)-1,2,4-oxadiazol-5-yl]-2-nitroaniline] | 295 |
| COc1ccc(F)cc1-c1noc(-c2ccc(N3CCCCC3C)nc2)n1 (stereo not shown) [Compound I75, 5-[3-(5-fluoro-2-methoxyphenyl)-1,2,4-oxadiazol-5-yl]-2-(2-methylpiperidin-1-yl)pyridine] | 1190 |
| CC1CCC(C)N1c1ccc(-c2nc(-c3ccccc3OC(F)(F)F)no2)cc1[N+](=O)[O-] (stereo not shown) [Compound I38, 5-[4-(2,5-dimethylpyrrolidin-1-yl)-3-nitrophenyl]-3-[2-(trifluoromethoxy)phenyl]-1,2,4-oxadiazole] | 4470 |
| O=[N+]([O-])c1cc(-c2nc(-c3ccccc3OC(F)(F)F)no2)ccc1N1CCCCCC1 [Compound I15, 1-(2-nitro-4-{3-[2-(trifluoromethoxy)phenyl]-1,2,4-oxadiazol-5-yl}phenyl)azepane] | 1130 |
| COc1ccc(-c2ccc(-c3nc(-c4ccccc4OC)no3)cc2C)c(OC)c1 [Compound I47, 5-(2′,4′-dimethoxy-2-methylbiphenyl-4-yl)-3-(2-methoxyphenyl)-1,2,4-oxadiazole] | 1200 |
| CN(c1ccc(-c2nc(-c3ccccc3OC(F)(F)F)no2)cc1[N+](=O)[O-])C1CCCCC1 [Compound I5, N-cyclohexyl-N-methyl-2-nitro-4-{3-[2-(trifluoromethoxy)phenyl]-1,2,4-oxadiazol-5-yl}aniline] | 589 |
| O=[N+]([O-])c1cc(-c2nc(-c3ccccc3OC(F)(F)F)no2)ccc1N1CCCC(F)(F)C1 [Compound I11, 3,3-difluoro-1-(2-nitro-4-{3-[2-(trifluoromethoxy)phenyl]-1,2,4-oxadiazol-5-yl}phenyl)piperidine] | 80 |
| COCC1CCCN1c1ncc(-c2nc(-c3cc(F)ccc3OC)no2)cc1C (stereo not shown) [Compound I76, 5-[3-(5-fluoro-2-methoxyphenyl)-1,2,4-oxadiazol-5-yl]-2-[2-(methoxymethyl)pyrrolidin-1-yl]-3-methylpyridine] | 522 |
| Nc1cc(-c2nc(-c3ccccc3OC(F)(F)F)no2)ccc1N1CCCC(F)(F)C1 [Compound I41, 2-(3,3-difluoropiperidin-1-yl)-5-{3-[2-(trifluoromethoxy)phenyl]-1,2,4-oxadiazol-5-yl}aniline] | 116 |

The remaining lines, values ahead:

| EC50 [nM] | SMILES |
| --- | --- |
| 33 | COc1ccccc1-c1noc(-c2ccc(-c3ccccc3C)c(OC)c2)n1 [Compound I46, 5-(2-methoxy-2′-methylbiphenyl-4-yl)-3-(2-methoxyphenyl)-1,2,4-oxadiazole] |
| 228 | COc1ccccc1-c1noc(-c2ccc(N3CCCCCC3)c([N+](=O)[O-])c2)n1 [Compound I16, 1-{4-[3-(2-methoxyphenyl)-1,2,4-oxadiazol-5-yl]-2-nitrophenyl}azepane] |
| 58 | O=[N+]([O-])c1cc(-c2nc(-c3ccccc3OC(F)(F)F)no2)ccc1N1CCCCC1 [Compound I31, 1-(2-nitro-4-{3-[2-(trifluoromethoxy)phenyl]-1,2,4-oxadiazol-5-yl}phenyl)piperidine] |
| 39 | Cc1cc(-c2nc(-c3ccccc3OC(F)(F)F)no2)ccc1N1CCCCC1 [Compound I58, 1-(2-methyl-4-{3-[2-(trifluoromethoxy)phenyl]-1,2,4-oxadiazol-5-yl}phenyl)piperidine] |
| 28 | COc1ccc(F)cc1-c1noc(-c2ccc(N3CCOCC3)c(C)c2)n1 [Compound I66, 4-{4-[3-(5-fluoro-2-methoxyphenyl)-1,2,4-oxadiazol-5-yl]-2-methylphenyl}morpholine] |
| 657 | COc1ccc(F)cc1-c1noc(-c2ccc(-c3ccccc3C)c(C(=O)O)c2)n1 [Compound I79, 4-[3-(5-fluoro-2-methoxyphenyl)-1,2,4-oxadiazol-5-yl]-2′-methylbiphenyl-2-carboxylic acid] |
| 921 | COc1ccccc1-c1noc(-c2ccc(N3CCCC(F)(F)C3)c(N(S(C)(=O)=O)S(C)(=O)=O)c2)n1 [Compound I37, N-dimethanesulfonyl-2-(3,3-difluoropiperidin-1-yl)-5-{3-[2-(methoxy)phenyl]-1,2,4-oxadiazol-5-yl}aniline] |
| 130 | Cc1cc(-c2nc(-c3ccccc3OC(F)(F)F)no2)ccc1N1CCOCC1 [Compound I65, 4-(2-methyl-4-{3-[2-(trifluoromethoxy)phenyl]-1,2,4-oxadiazol-5-yl}phenyl)morpholine] |
| 132 | COc1ccccc1-c1noc(-c2ccc(N3CCCC3)c([N+](=O)[O-])c2)n1 [Compound I13, 3-(2-methoxyphenyl)-5-(3-nitro-4-pyrrolidin-1-ylphenyl)-1,2,4-oxadiazole] |
| 712 | COc1ccccc1-c1noc(-c2ccc(N3CCOCC3)c(N)c2)n1 [Compound I6, 5-[3-(2-methoxyphenyl)-1,2,4-oxadiazol-5-yl]-2-morpholin-4-ylaniline] |
| 135 | O=[N+]([O-])c1cc(-c2nc(-c3ccccc3OC(F)(F)F)no2)ccc1N1CCOCC1 [Compound I17, 4-(2-nitro-4-{3-[2-(trifluoromethoxy)phenyl]-1,2,4-oxadiazol-5-yl}phenyl)morpholine] |
| 172 | COc1ccccc1-c1noc(-c2ccc(-c3c(C)noc3C)c(C)c2)n1 [Compound I50, 5-[4-(3,5-dimethylisoxazol-4-yl)-3-methylphenyl]-3-(2-methoxyphenyl)-1,2,4-oxadiazole] |
| 21 | COc1ccccc1-c1noc(-c2ccc(N3CCCCC3)c(C(F)(F)F)c2)n1 [Compound I59, 1-[4-[3-(2-methoxyphenyl)-1,2,4-oxadiazol-5-yl]-2-(trifluoromethyl)phenyl]piperidine] |
| 27 | COc1ccccc1-c1noc(-c2ccc(-c3ccccc3OC)c(C)c2)n1 [Compound I40, 5-(2′-methoxy-2-methylbiphenyl-4-yl)-3-(2-methoxyphenyl)-1,2,4-oxadiazole] |
| 428 | O=[N+]([O-])c1cc(-c2nc(-c3ccccc3OC(F)(F)F)no2)ccc1N1CCCC1 [Compound I14, 5-(3-nitro-4-pyrrolidin-1-ylphenyl)-3-[2-(trifluoromethoxy)phenyl]-1,2,4-oxadiazole] |
| 24 | COc1ccccc1-c1noc(-c2ccc(N3CCCCC3)c(C)c2)n1 [Compound I67, 1-{4-[3-(2-methoxyphenyl)-1,2,4-oxadiazol-5-yl]-2-methylphenyl}piperidine] |
| 1250 | COc1ccccc1-c1noc(-c2ccc(N3C(C)CCC3C)c([N+](=O)[O-])c2)n1 (stereo not shown) [Compound I42, 5-[4-(2,5-dimethylpyrrolidin-1-yl)-3-nitrophenyl]-3-(2-methoxyphenyl)-1,2,4-oxadiazole] |
| 10 | COc1ccc(F)cc1-c1noc(-c2ccc(N3CCCCC3)c(C)c2)n1 [Compound I68, 1-{4-[3-(5-fluoro-2-methoxyphenyl)-1,2,4-oxadiazol-5-yl]-2-methylphenyl}piperidine] |
| 98 | COc1ccccc1-c1noc(-c2ccc(N3CCOCC3)c(C)c2)n1 [Compound I64, 4-{4-[3-(2-methoxyphenyl)-1,2,4-oxadiazol-5-yl]-2-methylphenyl}morpholine] |
| 254 | CCOc1ccccc1-c1noc(-c2ccc(N3CCCCC3)c([N+](=O)[O-])c2)n1 [Compound I7, 1-{4-[3-(2-ethoxyphenyl)-1,2,4-oxadiazol-5-yl]-2-nitrophenyl}piperidine] |
